Article PMC11683478, “Bioprospecting of culturable marine biofilm bacteria for novel antimicrobial peptides” (iMeta, 2024)
Where no end group is shown, it is not given here.

How the values were obtained:
[1] = test system: human normal colon epithelial cells (NCM-460); type: cell-based; details: 48 h
Protocol: Human normal colon epithelial cells (NCM‐460) were purchased from the BeNa Culture Collection. Cytotoxicity was measured using the 3‐[4,5‐dimethylthiazol‐2‐yl]−2,5 diphenyl tetrazolium bromide (MTT) assay. The NCM‐460 cells were cultured in the Dulbecco's modified Eagle's medium (DMEM)‐H complete culture medium (90% DMEM‐H, 10% FBS, 10,000 U/mL penicillin, and 10,000 μg/mL streptomycin) to logarithmic growth phase. The suspension of cells was prepared at 10^5 cells/100 μL/well in a 96‐well plate. The peptides selected for the assay were dissolved in the DMEM‐H medium to prepare a 25 mg/mL stock solution, diluted for multiple gradients of 4–512 μg/mL. Afterwards, the peptides that had been diluted (100 μL/well) were introduced into the cells residing on a 96‐well plate. The DMEM‐H medium served as the blank group, the cell suspension as the control group, and the cell suspension combined with the peptide as the experimental group. Each group was conducted in three separate replicates. After 48 h of culture, 10 μL MTT was added to each well and incubated further at 37°C for 4 h. Then 100 μL Formazan solution was added and incubated further at 37°C for 4 h until all the purple crystals were dissolved. The absorbances were measured at OD570. Cell viability was determined by calculating cell viability using the following formula. Cell viability=OD570(experimental)−OD570(blank)/OD570(control)−OD570(blank)×100%.
Then, the CC50 value of each AMP molecule was calculated using an online tool: https://www.aatbio.com/tools/ic50-calculator.

sheep red blood cells = details: red cells of sheep, 1 h
Protocol: Freshly collected sheep blood was centrifuged at 3000 rpm for 10 min, and the supernatant was removed. The pellet was washed and resuspended with normal saline water to produce a 2% blood cell solution. Then, 400 μL of peptide solution was added to 100 μL of 2% blood cell solution to achieve final peptide concentrations of 8, 16, 32, 64, and 128 μg/mL. Normal saline water and Triton X‐100 normal saline solution (2%) were used as negative and positive controls, respectively. The samples were incubated in a water bath at 37°C for 1 h, followed by centrifugation at 3000 rpm for 10 min. Then, 200 μL of the supernatant was transferred to a 96‐well plate, and OD values were measured at a wavelength of 545 nm. The hemolysis rate of each sample was calculated using the following formula: Hemolysis ratio=OD545(experimental)−OD545(negative control)/OD545(positive control)−OD545(negative control)×100%.

[2] = test system: eight pathogenic bacterial strains; assay: MIC, panel statement; type: cell-based; details: panel of eight strains, CAMHB, 37°C
Protocol: Eight bacterial strains were utilized in the antibacterial experiment. S. aureus ATCC 12600, B. subtilis ATCC 23857, E. coli ATCC 11775, and A. baumannii ATCC 19606 were purchased from Shanghai Beinuo Biology. M. luteus ATCC 4698 and S. bongori ATCC43975 were purchased from Shanghai Beisi Biotechnology. V. owensii ems001 and V. alginolyticus xv22 from the intestines of diseased shrimps were isolated in our laboratory. All strains were cultured in the cation‐adjusted Mueller‐Hinton broth (CAMHB) at 37°C to the logarithmic growth phase (OD600 = 0.5). Then, bacteria were gradient‐diluted using fresh CAMHB to a bacterial density of 5 × 10^5 CFU/mL. Antibacterial experiments were performed in a 96‐well plate with 200 μg/mL final peptide concentration. Four experimental groups were set up, including a blank control (200 μL CAMHB), a negative control (180 μL CAMHB plus 20 μL peptide), a positive control (180 μL bacterial culture plus 20 μL ultrapure water), and an experimental group (180 μL bacterial culture plus 20 μL peptide). Three biological replicates were conducted for each group, and OD600 values were measured after incubation at 37°C for 12 h. Every observed value was removed from the blank control group value. […] The MIC of a peptide against a bacterium was determined as the minimum peptide concentration at which there was no visible bacterial growth.

Sequence	Cytotoxicity CC50 [1] [µg/mL]	Hemolysis ratio (%) at 8μg/mL (sheep red blood cells) [%]	Hemolysis ratio (%) at 16μg/mL (sheep red blood cells) [%]	Hemolysis ratio (%) at 32μg/mL (sheep red blood cells) [%]	Hemolysis ratio (%) at 64μg/mL (sheep red blood cells) [%]	Hemolysis ratio (%) at 128μg/mL (sheep red blood cells; 128) [%]	MIC against nearly all strains [2] [µg/mL]
MKKCRRKVLFGLWRRN [Cand-77]	45.263	3.431	4.302	5.822	8.387	12.471	≤ 32
MSRSLRNLLKYVWVKVKGE [Cand-217]	25.740	2.490	2.604	4.447	9.600	–	≤ 32
